Test results as given in publication PMC7956382 (Molecules, 2021).

Tested on: muscle nAChR-expressing cells
Assay type: cell-based, mouse

Substance: α-bungarotoxin [α-Bgt]
- Inhibition of calcium transients: No transients were recorded
